In patent publication US20260263495A1, “METHODS AND BIOAVAILABLE HIGHLY PERMEABLE COMPOUNDS FOR DISEASES TREATMENT” (priority 2024, published 2026):

Tests used:
[1] = API concentration in the blood plasma of cattle after oral administration; assay type: in vivo; conditions: 600 μg/kg (per pure IVM)
Method: Free ivermectin substance was processed in planetary mill, the parameters were as follows: weight of the material—5 g, grinding jar volume—200 mL, grinding media—steel balls (diameter 8 mm, 90.0 g load), processing time—20 minutes. Compound of Formula I was treated according to Example 1 No21.
Cattle were divided into 2 groups of 1 animals each. Free Ivermectin (IVM) and compound of Formula I were orally administered to starving cattle. Blood samples were withdrawn from the jugular vein at appropriate time intervals after administration (0, 4, 20 h).
Ivermectin concentrations in blood plasma were analyzed according to the method Na-Bangchang, K., High-performance liquid chromatographic method for the determination of ivermectin in plasma, Southeast Asian J Trop Med Public Health, 2006 September, 37(5):848-58, PMID: 17333725.
The internal standard (moxidectin) was separated from ivermectin on a Hypersil Gold C18 column(150×4.6 mm, […]), with retention time of 3.7 and 7.0 minutes, respectively. Fluorescence detection was set at an excitation and emission wavelength of 365 and 475 nm, respectively. The mobile phase consisted of acetonitrile, methanol and distilled water (50:45:5,v/v/v), running through the column at a flow rate of 1.5 ml/minute. The chromatographic analysis was operated at 25° C. Sample preparation (100 μl plasma) was done by a single step protein precipitation with acetonitrile, followed by derivatization with 100 μl of N-methylimidazolesolution in acetonitrile (1:1, v/v) and 150 μl of trifluoroacetic anhydrous solution in acetonitrile(1:2, v/v). Calibration curve over the concentration range of 20-8,000 ng/ml plasma was linear with correlation coefficient better than 0.995.
All the blood samples were centrifuged at 3000 rpm for 15 min to obtain […]. Cattle plasma samples (100 μL each) were placed in 1.5 mL Eppendorf tubes, and then the samples underwent protein precipitation. The samples were vortexed for 1 min and centrifuged at 13,400 rpm for 10 min 20 μL of the supernatant was injected into the HPLC.

SARS-CoV-2 = conditions: reference level compared with the lung Cmax; read-out: EC 50 for SARS-CoV-2; cited from earlier work
[2] = tested on: monolayer of Caco-2 cells; test: Permeability of solid dispersion aqueous solution on the Caco-2 cell line; conditions: Caco-2 monolayer, 3 μM (per pure IVM) in HBSS on top, compound of Formula I = Example 1 No 2

CC[C@H](C)[C@H]1O[C@]2(CC[C@@H]1C)C[C@@H]1C[C@@H](C/C=C(\C)[C@@H](O[C@H]3C[C@H](OC)[C@@H](O[C@H]4C[C@H](OC)[C@@H](O)[C@H](C)O4)[C@H](C)O3)[C@@H](C)/C=C/C=C3\CO[C@@H]4[C@H](O)C(C)=C[C@@H](C(=O)O1)[C@]34O)O2 [IVM, Ivermectin]
Cmax [1]: 350 ± 50 nM
C1, 0 h, ivermectin concentration in plasma ([1]; 0 h, compound of Formula I treated according to Example 1 No21): 0 ± 0.15 ng/mL
C2, 4 h, ivermectin concentration in plasma ([1]; 4 h, compound of Formula I treated according to Example 1 No21): 307.3 ± 46.1 ng/mL
C3, 20 h, ivermectin concentration in plasma ([1]; 20 h, compound of Formula I treated according to Example 1 No21): 104.4 ± 15.6 ng/mL
Cmax in lung calculated by plasma-lung ratio 2.67 ([1]; calculated from plasma Cmax): 930 ± 140 nM
EC50 (SARS-CoV-2): 2400 nM
Concentrartion of IVM at the bottom of the well ([2]; 20 min): 50 ng/mL
Concentrartion of IVM at the bottom of the well ([2]; 40 min): 90 ng/mL
Concentrartion of IVM at the bottom of the well ([2]; 60 min): 150 ng/mL
Concentrartion of IVM at the bottom of the well ([2]; 80 min): 190 ng/mL
Concentrartion of IVM at the bottom of the well ([2]; 100 min): 210 ng/mL
Concentrartion of IVM at the bottom of the well ([2]; 120 min): 250 ng/mL
